These are literature values, as cited in patent US8765768B2, “Heterocyclic compounds and their uses” (Amgen Inc., priority 2010, dated 2014).

Series [1] deals with ovalbumin-induced airway inflammation.
Series [2] addresses T1, p110δ (Homo sapiens, UniProt O00329).
T1 sequence (O00329 1-1044): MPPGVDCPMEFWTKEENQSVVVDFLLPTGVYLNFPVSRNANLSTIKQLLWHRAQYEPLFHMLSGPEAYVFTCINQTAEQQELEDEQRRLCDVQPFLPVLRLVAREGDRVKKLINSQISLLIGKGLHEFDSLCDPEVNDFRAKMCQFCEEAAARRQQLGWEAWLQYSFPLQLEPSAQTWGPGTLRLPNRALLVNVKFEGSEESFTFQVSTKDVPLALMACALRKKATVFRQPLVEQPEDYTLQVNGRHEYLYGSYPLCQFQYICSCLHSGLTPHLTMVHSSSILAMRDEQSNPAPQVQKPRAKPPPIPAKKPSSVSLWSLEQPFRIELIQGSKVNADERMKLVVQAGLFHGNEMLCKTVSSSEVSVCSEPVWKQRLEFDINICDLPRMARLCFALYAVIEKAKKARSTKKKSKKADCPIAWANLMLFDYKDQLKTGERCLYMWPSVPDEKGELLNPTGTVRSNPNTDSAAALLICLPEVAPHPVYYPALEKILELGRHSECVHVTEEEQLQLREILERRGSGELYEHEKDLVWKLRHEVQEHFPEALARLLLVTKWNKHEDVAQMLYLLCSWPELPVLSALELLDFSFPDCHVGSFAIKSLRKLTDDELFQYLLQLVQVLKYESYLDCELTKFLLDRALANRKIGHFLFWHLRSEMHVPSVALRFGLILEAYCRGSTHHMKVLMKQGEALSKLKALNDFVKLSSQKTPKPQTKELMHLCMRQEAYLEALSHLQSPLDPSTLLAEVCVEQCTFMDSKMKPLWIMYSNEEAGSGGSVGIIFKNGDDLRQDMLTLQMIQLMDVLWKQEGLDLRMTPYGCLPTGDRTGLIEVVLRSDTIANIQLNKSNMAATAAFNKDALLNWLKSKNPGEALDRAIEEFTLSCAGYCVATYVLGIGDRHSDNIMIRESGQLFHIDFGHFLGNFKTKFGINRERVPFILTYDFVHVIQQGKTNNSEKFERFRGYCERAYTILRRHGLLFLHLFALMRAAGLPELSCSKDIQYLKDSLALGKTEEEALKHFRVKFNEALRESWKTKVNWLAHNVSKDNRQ

The subject of series [3] is protein kinases.
The test system of series [4] is mouse model of rheumatoid arthritis. The conditions noted are these: in vivo.
The subject of series [5] is model of systemic lupus erythematosis. The following applies: in vivo.

For `Cc1ccccc1-n1c(Cn2cnc3c(N)ncnc32)nc2cccc(C)c2c1=O` [IC87114], in series [1], the “inflammation and disease in a murine model of asthma” value is “significantly ameliorate inflammation and disease”. Moreover, in series [2], the “inhibits p110δ” value is recorded as “high nanomolar range (triple digit)”. The “activity against any protein kinases tested” value in series [3] is reported as “no activity”.

As for `O=C1NC(=O)/C(=C\c2ccc3nccnc3c2)S1` [AS 605240], the “efficacy in a mouse model of rheumatoid arthritis” value in series [4] is “efficacious”. In series [5], the “onset of disease in a model of systemic lupus erythematosis” value is “delay onset of disease”.
